Results as given in patent US9212182B2, “Bicyclic sulfonamide compounds as sodium channel inhibitors” (AMGEN INC., priority 2013, dated 2015).

The compounds below were run against Nav 1.7 (Homo sapiens (Human), UniProt Q15858) (assay: in-vitro Nav 1.7 PX (IC50)). Details: not given.
Type: cell-based

Nav 1.7, sequence (Q15858 whole entry): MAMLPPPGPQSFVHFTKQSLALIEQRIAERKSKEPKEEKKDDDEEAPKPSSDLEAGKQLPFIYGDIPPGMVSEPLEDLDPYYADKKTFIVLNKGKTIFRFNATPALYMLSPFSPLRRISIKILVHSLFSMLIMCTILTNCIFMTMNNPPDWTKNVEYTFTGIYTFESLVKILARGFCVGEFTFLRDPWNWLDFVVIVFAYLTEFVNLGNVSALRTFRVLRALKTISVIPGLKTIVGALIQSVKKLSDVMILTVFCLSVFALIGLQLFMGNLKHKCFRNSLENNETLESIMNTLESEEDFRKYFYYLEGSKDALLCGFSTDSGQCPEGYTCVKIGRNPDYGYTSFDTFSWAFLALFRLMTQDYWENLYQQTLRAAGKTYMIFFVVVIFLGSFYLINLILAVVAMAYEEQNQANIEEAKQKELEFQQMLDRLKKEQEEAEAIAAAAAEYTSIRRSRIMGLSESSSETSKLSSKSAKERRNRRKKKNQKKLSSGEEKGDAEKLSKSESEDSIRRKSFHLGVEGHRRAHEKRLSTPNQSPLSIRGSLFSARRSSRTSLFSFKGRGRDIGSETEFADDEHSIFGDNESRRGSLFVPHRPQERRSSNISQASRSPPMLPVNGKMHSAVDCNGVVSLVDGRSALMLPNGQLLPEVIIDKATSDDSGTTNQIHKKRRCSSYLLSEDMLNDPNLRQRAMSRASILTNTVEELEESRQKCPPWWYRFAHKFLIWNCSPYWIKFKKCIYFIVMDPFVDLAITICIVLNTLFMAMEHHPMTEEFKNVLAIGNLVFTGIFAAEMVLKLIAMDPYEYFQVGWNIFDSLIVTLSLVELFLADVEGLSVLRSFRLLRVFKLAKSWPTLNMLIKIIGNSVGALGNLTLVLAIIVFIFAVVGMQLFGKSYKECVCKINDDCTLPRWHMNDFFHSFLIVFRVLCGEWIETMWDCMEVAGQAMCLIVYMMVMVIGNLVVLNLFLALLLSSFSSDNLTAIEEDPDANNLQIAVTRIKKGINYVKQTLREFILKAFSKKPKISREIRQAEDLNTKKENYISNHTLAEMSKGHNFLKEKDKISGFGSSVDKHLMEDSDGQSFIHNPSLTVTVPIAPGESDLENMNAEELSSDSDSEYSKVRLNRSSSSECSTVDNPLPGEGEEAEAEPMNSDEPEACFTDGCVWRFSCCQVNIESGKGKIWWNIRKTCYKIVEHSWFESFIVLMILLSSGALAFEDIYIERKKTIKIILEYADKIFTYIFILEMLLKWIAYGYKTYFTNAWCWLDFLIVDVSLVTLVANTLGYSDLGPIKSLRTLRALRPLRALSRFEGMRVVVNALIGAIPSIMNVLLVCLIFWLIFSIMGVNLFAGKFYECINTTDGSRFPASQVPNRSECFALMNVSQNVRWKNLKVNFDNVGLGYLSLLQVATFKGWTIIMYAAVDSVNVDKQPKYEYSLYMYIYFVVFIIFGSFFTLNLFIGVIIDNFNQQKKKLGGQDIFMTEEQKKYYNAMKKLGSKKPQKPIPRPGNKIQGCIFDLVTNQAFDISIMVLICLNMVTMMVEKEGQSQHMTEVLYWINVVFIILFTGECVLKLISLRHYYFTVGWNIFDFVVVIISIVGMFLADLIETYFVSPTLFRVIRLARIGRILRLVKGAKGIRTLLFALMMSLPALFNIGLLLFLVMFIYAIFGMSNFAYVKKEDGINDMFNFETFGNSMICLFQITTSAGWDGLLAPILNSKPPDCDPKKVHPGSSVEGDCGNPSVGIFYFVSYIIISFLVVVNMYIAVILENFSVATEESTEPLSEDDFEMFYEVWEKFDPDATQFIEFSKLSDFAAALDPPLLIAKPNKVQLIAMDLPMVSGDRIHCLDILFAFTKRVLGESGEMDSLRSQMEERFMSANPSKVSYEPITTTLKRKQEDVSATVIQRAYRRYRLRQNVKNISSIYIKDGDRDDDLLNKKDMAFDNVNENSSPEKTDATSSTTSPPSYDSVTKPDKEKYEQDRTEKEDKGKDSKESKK

| Compound | IC50 [nM] |
| --- | --- |
| COc1cc(-c2cc(F)cc(Cl)c2)c(C#N)cc1-n1c(=O)ccc2cc(S(=O)(=O)Nc3ccon3)ccc21 (atropisomer, axis not shown; (M)) [Example 434, (M)-1-(3′-chloro-2-cyano-5′-fluoro-5-methoxy-4-biphenylyl)-N-3-isoxazolyl-2-oxo-1,2-dihydro-6-quinolinesulfonamide] | 1840 |
| COc1ccc(-c2ccnn2C)cc1-n1c(=O)ccc2cc(S(=O)(=O)Nc3ccon3)ccc21 [Example 385, N-3-isoxazolyl-1-(2-methoxy-5-(1-methyl-1H-pyrazol-5-yl)phenyl)-2-oxo-1,2-dihydro-6-quinolinesulfonamide] | 6230 |
| COc1cc(-c2cccc(F)c2)c(Cl)cc1-n1c(=O)cc(C)c2cc(S(=O)(=O)Nc3ccon3)ccc21 [Example 567, 1-(2-chloro-3′-fluoro-5-methoxy-4-biphenylyl)-N-3-isoxazolyl-4-methyl-2-oxo-1,2-dihydro-6-quinolinesulfonamide] | 162 |
| COc1cc(-c2cccc(F)c2)c(Cl)cc1-n1c(=O)ccc2cc(S(=O)(=O)Nc3ccon3)c(F)cc21 (atropisomer, axis not shown; (P)) [Example 545, (P)-1-(2-chloro-3′-fluoro-5-methoxy-4-biphenylyl)-7-fluoro-N-3-isoxazolyl-2-oxo-1,2-dihydro-6-quinolinesulfonamide] | 10 |
| COc1cc(-c2cccc(Cl)c2)c(C)cc1-n1c(=O)ccc2cc(S(=O)(=O)Nc3ncccn3)ccc21 (atropisomer, axis not shown; (M)) [Example 322, (M)-1-(3′-chloro-5-methoxy-2-methyl-4-biphenylyl)-2-oxo-N-2-pyrimidinyl-1,2-dihydro-6-quinolinesulfonamide] | 3890 |
| COc1cc(-c2cccc(Cl)c2)c(Cl)cc1-n1c(=O)ccc2cc(S(=O)(=O)Nc3ccon3)ccc21 (atropisomer, axis not shown; (P)) [Example 459, (P)-1-(2,3′-dichloro-5-methoxy-[1,1′-biphenyl]-4-yl)-N-(isoxazol-3-yl)-2-oxo-1,2-dihydroquinoline-6-sulfonamide] | 12 |
| COc1cc(-c2cccc(Cl)c2)c(C)cc1-n1c(=O)ccc2cc(S(=O)(=O)Nc3ccon3)ccc21 (atropisomer, axis not shown; (M)) [Example 313, (M)-1-(3′-chloro-5-methoxy-2-methyl-4-biphenylyl)-N-3-isoxazolyl-2-oxo-1,2-dihydro-6-quinolinesulfonamide] | 799 |

Second part, the compound after the results:

| IC50 [nM] | Compound |
| --- | --- |
| 11 | COc1cc(-c2ccc(Cl)c(F)c2)ccc1-n1c(=O)ccc2cc(S(=O)(=O)Nc3ccon3)ccc21 (atropisomer, axis not shown; (P)) [Example 580, (P)-1-(4′-chloro-3′-fluoro-3-methoxy-4-biphenylyl)-N-3-isoxazolyl-2-oxo-1,2-dihydro-6-quinolinesulfonamide] |
| 12 | COc1cc(-c2cc(F)cc(Cl)c2)ccc1-n1c(=O)ccc2cc(S(=O)(=O)Nc3ccon3)ccc21 (atropisomer, axis not shown; (P)) [Example 430, (P)-1-(3′-chloro-5′-fluoro-3-methoxy-4-biphenylyl)-N-3-isoxazolyl-2-oxo-1,2-dihydro-6-quinolinesulfonamide] |
| 6090 | COc1cc(-c2ccc(Cl)c(C)c2)c(C)cc1-n1c(=O)ccc2cc(S(=O)(=O)Nc3ccon3)ccc21 (atropisomer, axis not shown; (M)) [Example 422, (M)-1-(4′-chloro-5-methoxy-2,3′-dimethyl-4-biphenylyl)-N-3-isoxazolyl-2-oxo-1,2-dihydro-6-quinolinesulfonamide] |

Same assay, conditions: in-vitro Nav 1.7 PX data

| Compound | IC50 [nM] |
| --- | --- |
| COc1cc(F)cc(-c2ccc(-n3c(=O)ccc4cc(S(=O)(=O)Nc5cccnn5)ccc43)c(OC)c2)c1 [Example 997, 1-(3′-fluoro-3,5′-dimethoxy-4-biphenylyl)-2-oxo-N-3-pyridazinyl-1,2-dihydro-6-quinolinesulfonamide] | 66 |
| COc1cc(-c2ccc(C(F)(F)F)cc2)c(F)cc1-n1c(=O)ccc2cc(S(=O)(=O)Nc3ncc(F)cn3)ccc21 [Example 796, 1-(2-fluoro-5-methoxy-4′-(trifluoromethyl)-4-biphenylyl)-N-(5-fluoro-2-pyrimidinyl)-2-oxo-1,2-dihydro-6-quinolinesulfonamide] | 33 |
| COc1cc(-c2ccc(C)c(C)c2)c(F)cc1-n1c(=O)ccc2cc(S(=O)(=O)Nc3ccon3)ccc21 [Example 704, 1-(2-fluoro-5-methoxy-3′,4′-dimethyl-4-biphenylyl)-N-3-isoxazolyl-2-oxo-1,2-dihydro-6-quinolinesulfonamide] | 16 |
| COc1cc(-c2cccc(F)c2)ncc1-n1c(=O)ccc2cc(S(=O)(=O)Nc3ccon3)ccc21 [Example 601, 1-(6-(3-fluorophenyl)-4-methoxy-3-pyridinyl)-N-3-isoxazolyl-2-oxo-1,2-dihydro-6-quinolinesulfonamide] | 1770 |
| COc1cccc(-c2nc(OC)c(-n3c(=O)ccc4cc(S(=O)(=O)Nc5ccon5)ccc43)cc2Cl)c1 [Example 1092, 1-(5-chloro-2-methoxy-6-(3-methoxyphenyl)-3-pyridinyl)-N-3-isoxazolyl-2-oxo-1,2-dihydro-6-quinolinesulfonamide] | 48 |
| COc1ccc(-c2cc(F)cc(Cl)c2)cc1-n1c(=O)ccc2cc(S(=O)(=O)Nc3ccncn3)ccc21 [Example 610, 1-(3′-chloro-5′-fluoro-4-methoxy-3-biphenylyl)-2-oxo-N-4-pyrimidinyl-1,2-dihydro-6-quinolinesulfonamide] | 13 |
| COc1nc(OCC2CC2)c(Cl)cc1-n1c(=O)ccc2cc(S(=O)(=O)Nc3ccon3)ccc21 [638/819, 1-(5-chloro-6-(cyclopropylmethoxy)-2-methoxy-3-pyridinyl)-N-3-isoxazolyl-2-oxo-1,2-dihydro-6-quinolinesulfonamide] | 825 |
| COc1cc(-c2ccc(F)c(F)c2)c(F)cc1-n1c(=O)ccc2cc(S(=O)(=O)Nc3ccnc(C)n3)ccc21 [Example 939, N-(2-methyl-4-pyrimidinyl)-2-oxo-1-(2,3′,4′-trifluoro-5-methoxy-4-biphenylyl)-1,2-dihydro-6-quinolinesulfonamide] | 41 |
| COc1nc(OCC2CCCC2)c(Cl)cc1-n1c(=O)ccc2cc(S(=O)(=O)Nc3ccon3)ccc21 [Example 824, 1-(5-chloro-6-(cyclopentylmethoxy)-2-methoxy-3-pyridinyl)-N-3-isoxazolyl-2-oxo-1,2-dihydro-6-quinolinesulfonamide] | 217 |
| CCc1cccc(-c2cc(OC)c(-n3c(=O)ccc4cc(S(=O)(=O)Nc5ccon5)ccc43)cc2F)c1 [Example 791, 1-(3′-ethyl-2-fluoro-5-methoxy-4-biphenylyl)-N-3-isoxazolyl-2-oxo-1,2-dihydro-6-quinolinesulfonamide] | 9 |

The next lines start with the values.

| IC50 [nM] | Compound |
| --- | --- |
| 26 | COc1cc(-c2cccc(OC(C)C)c2)ccc1-n1c(=O)ccc2cc(S(=O)(=O)Nc3ccon3)ccc21 [Example 780, N-3-isoxazolyl-1-(3-methoxy-3′-(1-methylethoxy)-4-biphenylyl)-2-oxo-1,2-dihydro-6-quinolinesulfonamide] |
| 66 | COc1cc(OC)cc(-c2ccc(-n3c(=O)ccc4cc(S(=O)(=O)Nc5ccon5)ccc43)c(OC)c2)c1 [Example 811, N-3-isoxazolyl-2-oxo-1-(3,3′,5′-trimethoxy-4-biphenylyl)-1,2-dihydro-6-quinolinesulfonamide] |
| 184 | COc1cc(-c2ccc(OC)c(-n3c(=O)ccc4cc(S(=O)(=O)Nc5ccon5)ccc43)c2)ccc1F [Example 889, 1-(4′-fluoro-3′,4-dimethoxy-3-biphenylyl)-N-3-isoxazolyl-2-oxo-1,2-dihydro-6-quinolinesulfonamide] |
| 49 | COc1cc(-c2ccc(Cl)c(C)c2)ccc1-n1c(=O)ccc2cc(S(=O)(=O)Nc3ncc(F)cn3)ccc21 (atropisomer, axis not shown; (P)) [Example 690, (P)-1-(4′-chloro-3-methoxy-3′-methyl-4-biphenylyl)-N-(5-fluoro-2-pyrimidinyl)-2-oxo-1,2-dihydro-6-quinolinesulfonamide] |
| 33 | COc1ccc(-c2ccc(Cl)c(F)c2)cc1-n1c(=O)ccc2cc(S(=O)(=O)Nc3ccon3)ccc21 [Example 874, 1-(4′-chloro-3′-fluoro-4-methoxy-3-biphenylyl)-N-3-isoxazolyl-2-oxo-1,2-dihydro-6-quinolinesulfonamide] |

Same assay, conditions: in-vitro Nav 1.7 PX data (PatchXpress)

| Compound | IC50 [nM] |
| --- | --- |
| O=c1ccc2cc(S(=O)(=O)Nc3ncns3)ccc2n1-c1ccc(-c2cc(F)cc(F)c2)cc1C1CC1 [Example 1048, 1-(3-cyclopropyl-3′,5′-difluoro-4-biphenylyl)-2-oxo-N-1,2,4-thiadiazol-5-yl-1,2-dihydro-6-quinolinesulfonamide] | 15 |
| COc1cc(-c2cc(OC)c(-n3c(=O)ccc4cc(S(=O)(=O)Nc5ncco5)ccc43)cc2F)ccc1Cl [Example 1040, 1-(4′-chloro-2-fluoro-3′,5-dimethoxy-4-biphenylyl)-N-1,3-oxazol-2-yl-2-oxo-1,2-dihydro-6-quinolinesulfonamide] | 31 |

Other lines, results leading:

| IC50 [nM] | Compound |
| --- | --- |
| 20 | COc1ccc(C)cc1-c1ccc(-n2c(=O)ccc3cc(S(=O)(=O)Nc4ccon4)ccc32)c(OC)c1 [Example 1036, 1-(2′,3-dimethoxy-5′-methyl-4-biphenylyl)-N-3-isoxazolyl-2-oxo-1,2-dihydro-6-quinolinesulfonamide] |
| 24 | COc1ccc(C)c(-c2ccc(-n3c(=O)ccc4cc(S(=O)(=O)Nc5ccon5)ccc43)c(OC)c2)c1 [Example 1037, 1-(3,5′-dimethoxy-2′-methyl-4-biphenylyl)-N-3-isoxazolyl-2-oxo-1,2-dihydro-6-quinolinesulfonamide] |

Same assay, conditions: in-vitro PatchXpress (PX)

| IC50 [nM] | Compound |
| --- | --- |
| 34 | COc1cc(-c2cccc(C#N)c2)c(F)cc1-n1c(=O)ccc2cc(S(=O)(=O)Nc3ccon3)ccc21 (atropisomer, axis not shown; (P)) [Example 498, (P)-1-(3′-cyano-2-fluoro-5-methoxy-4-biphenylyl)-N-3-isoxazolyl-2-oxo-1,2-dihydro-6-quinolinesulfonamide] |
| 677 | COc1cc(-c2ccc(Cl)c(C)c2)c(Cl)cc1-n1c(=O)ccc2cc(S(=O)(=O)Nc3ccncn3)ccc21 (atropisomer, axis not shown; (M)) [Example 368, (M)-1-(2,4′-dichloro-5-methoxy-3′-methyl-4-biphenylyl)-2-oxo-N-4-pyrimidinyl-1,2-dihydro-6-quinolinesulfonamide] |
